According to patent US8952024B2, “Herbicidal pyrimidone derivatives” (E I du Pont de Nemours and Company, priority 2009, dated 2015):

Key:
Test in all cases: Test B pre-/postemergence plant response
Type in all cases: in vivo
[1] = test system: johnsongrass (Sorghum halepense)
Method in brief: (§1)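 Test compounds, formulated in a non-phytotoxic solvent mixture with surfactant, are applied to the soil surface (loam and sand blend) right after seeding, or sprayed over plants at the 1- to 4-leaf stage grown in peat moss/vermiculite medium. After 13 to 15 days under glasshouse conditions, each species is scored visually from 0 (no effect) to 100 (complete control) against controls.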

[2] = test system: yellow nutsedge (Cyperus esculentus)
Method in brief: as §1

[3] = test system: green foxtail (Setaria viridis)
Method in brief: as §1

[4] = test system: morningglory (Ipomoea coccinea)
Method in brief: as §1

[5] = test system: large crabgrass (Digitaria sanguinalis)
Method in brief: as §1

wild oat (Avena fatua) = test system: wild oat (Avena fatua)
Method in brief: as §1

soybean (Glycine max) = test system: soybean (Glycine max)
Method in brief: as §1

[6] = test system: goosegrass (Eleusine indica)
Method in brief: as §1

[7] = test system: woolly cupgrass (Eriochloa villosa)
Method in brief: as §1

[8] = test system: Surinam grass (Brachiaria decumbens)
Method in brief: as §1

[9] = test system: giant foxtail (Setaria faberii)
Method in brief: as §1

kochia (Kochia scoparia) = settings: Postemergence; for Plant response rating, Kochia: scale 0 (no effect) to 100 (complete control)
Method in brief: as §1

[10] = test system: downy bromegrass (Bromus tectorum)
Method in brief: as §1

corn (Zea mays) = test system: corn (Zea mays)
Method in brief: as §1

[11] = test system: blackgrass (Alopecurus myosuroides)
Method in brief: as §1

[12] = test system: cocklebur (Xanthium strumarium); settings: Postemergence
Method in brief: as §1

[13] = test system: velvetleaf (Abutilon theophrasti)
Method in brief: as §1

[14] = 250 g ai/ha, Preemergence, 0 to 100 scale
[15] = Postemergence, 62 g ai/ha, scale 0 (no effect) to 100 (complete control), 13 to 15 days
[16] = Postemergence, 125 g ai/ha, visual rating after 13 to 15 days, scale 0 (no effect) to 100 (complete control)
[17] = Postemergence, 250 g ai/ha, scale 0 to 100
[18] = Preemergence, 31 g ai/ha, scale 0 to 100 (0 no effect, 100 complete control)
[19] = Preemergence, 62 g ai/ha, scale 0 to 100, 0 no effect, 100 complete control
[20] = Preemergence, 125 g ai/ha, 0 to 100 scale
[21] = Postemergence, 31 g ai/ha, scale 0 to 100 (0 no effect, 100 complete control)

Cc1cccc(-n2c(-c3cccc(Cl)c3)ncc(C(=O)C3=C(O)CCCC3=O)c2=O)c1 [Compound 45]
Plant response rating, Johnsongrass [1, 14]: 85 | Plant response rating, Johnsongrass [1, 15]: 90 | Plant response rating, Johnsongrass [1, 16]: 98 | Johnsongrass plant response rating [1, 17]: 100 | Plant response rating, Johnsongrass [1, 18]: 0 | Plant response rating, Johnsongrass [1, 19]: 45 | Johnsongrass plant response rating [1, 20]: 75 | Plant response rating, Nutsedge, Yellow [2, 14]: 70 | Plant response rating, Nutsedge, Yellow [2, 15]: 10 | Plant response rating, Nutsedge, Yellow [2, 16]: 45 | Plant response rating, Nutsedge, Yellow [2, 18]: 0 | Nutsedge, Yellow plant response rating [2, 20]: 20 | Plant response rating, Foxtail, Green [3, 14]: 100 | Plant response rating, Foxtail, Green [3, 21]: 50 | Plant response rating, Foxtail, Green [3, 15]: 80 | Plant response rating, Foxtail, Green [3, 16]: 85 | Foxtail, Green plant response rating [3, 17]: 95 | Plant response rating, Foxtail, Green [3, 18]: 0 | Plant response rating, Foxtail, Green [3, 19]: 80 | Foxtail, Green plant response rating [3, 20]: 80 | Plant response rating, Morningglory [4, 14]: 0 | Plant response rating, Morningglory [4, 15]: 75 | Plant response rating, Morningglory [4, 16]: 80 | Plant response rating, Morningglory [4, 18]: 0 | Plant response rating, Crabgrass, Large [5, 14]: 100 | Plant response rating, Crabgrass, Large [5, 21]: 65 | Plant response rating, Crabgrass, Large [5, 15]: 75 | Plant response rating, Crabgrass, Large [5, 16]: 75 | Crabgrass, Large plant response rating [5, 17]: 85 | Plant response rating, Crabgrass, Large [5, 18]: 45 | Plant response rating, Crabgrass, Large [5, 19]: 95 | Crabgrass, Large plant response rating [5, 20]: 100 | Plant response rating, Oat, Wild (wild oat (Avena fatua); [14]): 5 | Plant response rating, Oat, Wild (wild oat (Avena fatua); [15]): 55 | Plant response rating, Oat, Wild (wild oat (Avena fatua); [16]): 60 | Plant response rating, Oat, Wild (wild oat (Avena fatua); [18]): 0 | Oat, Wild plant response rating (wild oat (Avena fatua); [20]): 0 | Plant response rating, Soybean (soybean (Glycine max); [14]): 0 | Plant response rating, Soybean (soybean (Glycine max); [15]): 95 | Plant response rating, Soybean (soybean (Glycine max); [16]): 98 | Plant response rating, Soybean (soybean (Glycine max); [18]): 0 | Soybean plant response rating (soybean (Glycine max); [20]): 0 | Plant response rating, Goosegrass [6, 14]: 100 | Plant response rating, Goosegrass [6, 15]: 75 | Plant response rating, Goosegrass [6, 16]: 80 | Goosegrass plant response rating [6, 17]: 90 | Plant response rating, Goosegrass [6, 18]: 80 | Goosegrass plant response rating [6, 20]: 100 | Plant response rating, Cupgrass, Woolly [7, 14]: 75 | Plant response rating, Cupgrass, Woolly [7, 21]: 70 | Plant response rating, Cupgrass, Woolly [7, 15]: 75 | Plant response rating, Cupgrass, Woolly [7, 16]: 75 | Cupgrass, Woolly plant response rating [7, 17]: 80 | Plant response rating, Cupgrass, Woolly [7, 18]: 45 | Plant response rating, Cupgrass, Woolly [7, 19]: 45 | Cupgrass, Woolly plant response rating [7, 20]: 60 | Plant response rating, Surinam Grass [8, 14]: 98 | Plant response rating, Surinam Grass [8, 15]: 75 | Plant response rating, Surinam Grass [8, 16]: 95 | Plant response rating, Surinam Grass [8, 18]: 45 | Surinam Grass plant response rating [8, 20]: 98 | Plant response rating, Foxtail, Giant [9, 14]: 75 | Plant response rating, Foxtail, Giant [9, 21]: 75 | Plant response rating, Foxtail, Giant [9, 15]: 90 | Plant response rating, Foxtail, Giant [9, 16]: 95 | Foxtail, Giant plant response rating [9, 17]: 98 | Plant response rating, Foxtail, Giant [9, 18]: 0 | Plant response rating, Foxtail, Giant [9, 19]: 0 | Foxtail, Giant plant response rating [9, 20]: 45 | Plant response rating, Kochia (kochia (Kochia scoparia); 62 g ai/ha, 13 to 15 days): 0 | Plant response rating, Kochia (kochia (Kochia scoparia); 125 g ai/ha, visual rating after 13 to 15 days): 15 | Kochia plant response rating (kochia (Kochia scoparia); 250 g ai/ha, scale 0 to 100): 98 | Plant response rating, Bromegrass, Downy [10, 14]: 5 | Plant response rating, Bromegrass, Downy [10, 21]: 10 | Plant response rating, Bromegrass, Downy [10, 15]: 20 | Plant response rating, Bromegrass, Downy [10, 16]: 45 | Bromegrass, Downy plant response rating [10, 17]: 50 | Plant response rating, Bromegrass, Downy [10, 18]: 0 | Plant response rating, Bromegrass, Downy [10, 19]: 0 | Bromegrass, Downy plant response rating [10, 20]: 0 | Plant response rating, Corn (corn (Zea mays); [14]): 0 | Plant response rating, Corn (corn (Zea mays); [21]): 10 | Plant response rating, Corn (corn (Zea mays); [15]): 45 | Plant response rating, Corn (corn (Zea mays); [16]): 60 | Corn plant response rating (corn (Zea mays); [17]): 80 | Plant response rating, Corn (corn (Zea mays); [18]): 0 | Plant response rating, Corn (corn (Zea mays); [19]): 0 | Corn plant response rating (corn (Zea mays); [20]): 0 | Plant response rating, Blackgrass [11, 14]: 5 | Plant response rating, Blackgrass [11, 21]: 5 | Plant response rating, Blackgrass [11, 15]: 5 | Plant response rating, Blackgrass [11, 16]: 10 | Blackgrass plant response rating [11, 17]: 25 | Plant response rating, Blackgrass [11, 18]: 0 | Plant response rating, Blackgrass [11, 19]: 0 | Blackgrass plant response rating [11, 20]: 0 | Plant response rating, Cocklebur ([12]; 31 g ai/ha, scale 0 to 100 (0 no effect, 100 complete control)): 10 | Plant response rating, Cocklebur ([12]; 62 g ai/ha, scale 0 (no effect) to 100 (complete control), 13 to 15 days): 50 | Plant response rating, Cocklebur ([12]; 125 g ai/ha, visual rating after 13 to 15 days, scale 0 (no effect) to 100 (complete control)): 70 | Cocklebur plant response rating ([12]; 250 g ai/ha, scale 0 to 100): 95 | Plant response rating, Velvetleaf [13, 14]: 95 | Plant response rating, Velvetleaf [13, 15]: 80 | Plant response rating, Velvetleaf [13, 16]: 90 | Plant response rating, Velvetleaf [13, 18]: 0 | Velvetleaf plant response rating [13, 20]: 85
